Reference: patent publication US8178506B2, “Oligomeric compounds and compositions for use in modulation of small non-coding RNAs” (Regulus Therapeutics Inc., priority 2003, dated 2012)
In the oligonucleotide strings, read from the 5' end, every base follows the letter of its sugar. An asterisk marks phosphorothioate; unmarked linkages are phosphodiester. Other units and linkages are bracketed, terminal groups are in braces. A string of capitals states the bases alone. e = 2'-O-(2-methoxyethyl) (MOE); [5mC] = 5-methylcytosine; d = 2'-deoxy (DNA)

Assays:
follistatin = experiment: Follistatin mRNA expression in HepG2 cells; format: cell-based, human; conditions: for Follistatin mRNA expression: Experiment 2, insulin treated: HepG2 cells transfected with oligomeric compound, 1 nM insulin for four hours, UTC + 1 nM insulin = 100
Protocol: (§1) Approximately 28 hours after transfection, the cells are subjected to serum starvation for a period of 12 to 16 hours, using serum-free growth medium. Following serum starvation, cells are treated with 1 nM insulin (insulin-treated) or are left untreated (basal conditions) for approximately four hours. At the same time, untreated control cells in both plates are treated with 100 nM insulin to determine the maximal insulin response. Following insulin treatment (forty-eight hours after transfection), total RNA is harvested from all samples, and the amount of total RNA from each sample is determined using a Ribogreen assay (Invitrogen Corporation, Carlsbad, Calif.). Real-time PCR is performed on the total RNA samples using primer/probe sets for three insulin responsive genes: insulin-like growth factor binding protein-1 (IGFBP-1), cytosolic PEPCK (PEPCK-C), and follistatin. Gene expression levels obtained by real-time PCR are normalized for total RNA content in the samples.
(§2) Oligomeric compounds of the present invention were tested for their effects on insulin signaling in HepG2 cells. HepG2 cells were plated at 7500 cells/well in collagen coated 96-well plates. The following day, cells were transfected with oligomeric compounds targeting miRNAs using 100 nM oligomeric compound in LIPOFECTIN™ (Invitrogen Corporation, Carlsbad, Calif.) in two 96-well plates. The oligomeric compounds were tested in triplicate on each 96-well plate, except for positive and negative controls, which were measured up to six times per plate. At the end of transfection, the transfection medium was replaced by regular growth medium. Twenty-eight hours post-transfection, the cells were subjected to overnight (sixteen to eighteen hours) serum starvation using serum free growth medium. Forty-four hours post-transfection, the cells in the transfected wells were treated with either no insulin (“basal” Experiment 1, for identification of insulin-mimetic compounds) or with 1 nM insulin (“insulin treated” Experiment 2, for identification of insulin sensitizers) for four hours. At the same time, in both plates, cells in some of the un-transfected control wells are treated with 100 nM insulin to determine maximal insulin response. At the end of the insulin or no-insulin treatment (forty-eight hours post-transfection), total RNA is isolated from both the basal and insulin treated (1 nM) 96-well plates, and the amount of total RNA from each sample is determined using a Ribogreen assay (Molecular Probes, Eugene, Oreg.). Real-time PCR is performed on all the total RNA samples using primer/probe sets for three insulin responsive genes: PEPCK-c, IGFBP-1 and follistatin. Expression levels for each gene are normalized to total RNA, and values+standard deviation are expressed relative to the transfectant only untreated control (UTC) and negative control compounds.
(§3) Protocols for treatment of HepG2 cells and transfection of oligomeric compounds are as described in Example 18. Also as described in Example 18, forty-four hours post-transfection, the cells in the transfected wells were treated with either no insulin (“basal” Experiment 3 (below), for identification of insulin-mimetic compounds) or with 1 nM insulin (“insulin treated” Experiment 4 (below), for identification of insulin sensitizers) for four hours. At the same time, in both plates, cells in some of the un-transfected control wells are treated with 100 nM insulin to determine maximal insulin response. At the end of the insulin or no-insulin treatment (forty-eight hours post-transfection), total RNA is isolated from both the basal and insulin treated (1 nM) 96-well plates, and the amount of total RNA from each sample is determined using a Ribogreen assay (Molecular Probes, Eugene, Oreg.).

PEPCK-c = PEPCK-c mRNA expression in HepG2 cells; format: cell-based, human; conditions: for PEPCKc mRNA expression: Experiment 2, insulin treated: HepG2 cells transfected with oligomeric compound, 1 nM insulin for four hours, UTC + 1 nM insulin = 100; for reduction of PEPCK-c mRNA expression: HepG2, 1 nM insulin; for reduction of PEPCK-c mRNA expression / decrease in PEPCK-c mRNA: 100 nM; for decrease in PEPCK-c mRNA: HepG2, basal (no insulin)
Protocol: as §1, §2, §3

IGFBP-1 = IGFBP-1 mRNA expression in HepG2 cells; format: cell-based, human; conditions: for IGFBP1 mRNA expression: Experiment 2, insulin treated: HepG2 cells transfected with oligomeric compound, 1 nM insulin for four hours, UTC + 1 nM insulin = 100
Protocol: as §1, §2, §3

[1] = system: BJ, B16-F10, T47D, T47Dp53 and HeLa cells; experiment: Cell cycle assay (propidium iodide flow cytometry), cell line panel; format: cell-based; conditions: 150 nM, 72 hours (Table 29)
[2] = HepG2 cells, Experiment 1, basal (no insulin), four hours, UTC = 100
[3] = Experiment 3, basal (no insulin), HepG2 cells, 48 hours post-transfection
[4] = Experiment 4, insulin-sensitization: HepG2 cells treated with 1 nM insulin for four hours, 48 h post-transfection, mRNA by real-time PCR

Substance	Follistatin mRNA expression (follistatin)	PEPCKc mRNA expression (PEPCK-c)	IGFBP1 mRNA expression (IGFBP-1)	Follistatin (% UTC) (follistatin; [3])	Follistatin (% UTC) (follistatin; [4])	PEPCK-c (% UTC) (PEPCK-c; [3])	PEPCK-c (% UTC) (PEPCK-c; [4])	IGFBP-1 (% UTC) (IGFBP-1; [3])	IGFBP-1 (% UTC) (IGFBP-1; [4])	also measured
341808 (antisense GAACUGCCUUUCUCUCCA; all 2'-MOE, all phosphorothioate, methylation of C and T or U not given here) [compound 341808]	–	–	–	–	–	–	–	–	–	Follistatin mRNA (follistatin; [2]): 96; PEPCKc mRNA (PEPCK-c; [2]): 64; IGFBP1 mRNA (IGFBP-1; [2]): 113
328358 (eA*eG*eT*eT*eT*dG*dA*dA*dG*dT*dG*dT*d[5mC]*dA*d[5mC]*eA*eG*e[5mC]*eG*e[5mC]) [compound 328358]	106	93	165	–	–	–	–	–	–	–
AGAAGGTGGGGAGCAGCGTCA (anti-miR; chemistry not fully specified) [ISIS 328115, uniform 2′-MOE PS; targets hypothetical miRNA-142]	–	–	–	–	–	–	–	–	–	reduction of PEPCK-c mRNA expression (PEPCK-c): 41%
TCAGTTTTGCATGGATTTGCACA (anti-miR; chemistry not fully specified) [ISIS 327922, uniform 2′-MOE PS; targets mir-19b-2]	–	–	–	–	–	–	–	–	–	reduction of PEPCK-c mRNA expression (PEPCK-c): 24%; decrease in PEPCK-c mRNA (PEPCK-c): 23%
328769 (antisense eA*eG*eG*e[5mC]*eT*dG*dG*dA*d[5mC]*dA*dG*d[5mC]*dA*d[5mC]*dA*e[5mC]*eA*eA*e[5mC]*e[5mC]) [compound 328769]	84	100	110	–	–	–	–	–	–	–
GCTACCTGCACTGTAAGCACTTTT (chemistry not given here) [ISIS 327911, uniform 2′-MOE PS; targets mir-106]	–	–	–	–	–	–	–	–	–	decrease in PEPCK-c mRNA (PEPCK-c): 48%; percentage of cells in the G2/M phase [1]: increased percentage of cells in the G2/M phase
328776 (antisense eT*e[5mC]*e[5mC]*eT*eG*dT*dA*dA*dT*dT*dA*dT*dA*dG*dG*e[5mC]*eT*eA*eG*e[5mC]) [compound 328776]	114	125	86	–	–	–	–	–	–	–
328343 (eT*e[5mC]*eG*eA*eT*dT*dT*dA*dG*dT*dT*dA*dT*d[5mC]*dT*eA*eA*eA*eA*eA) [compound 328343]	139	69	135	–	–	–	–	–	–	–
328764 (antisense eA*eG*eA*eT*eG*dT*dT*dT*d[5mC]*dT*dG*dG*d[5mC]*d[5mC]*dT*eG*e[5mC]*eG*eA*eG) [compound 328764]	128	68	145	–	–	–	–	–	–	–
328702 (eT*eG*eA*e[5mC]*e[5mC]*dA*d[5mC]*dA*dA*dA*dA*dT*dT*d[5mC]*d[5mC]*eT*eT*eA*e[5mC]*eA; antisense) [compound 328702]	88	96	83	–	–	–	–	–	–	–
ISIS 341804: SEQ ID NO: 761, targeting mir-94/mir-106b (antisense ATCTGCACTGTCAGCACTTT; all 2'-MOE, all phosphorothioate, methylation of C not given here)	–	–	–	–	–	–	–	–	–	decrease in PEPCK-c mRNA (PEPCK-c): 56%
ISIS 341805: SEQ ID NO: 762, targeting mir-184 (antisense ACCCTTATCAGTTCTCCGTCCA; all 2'-MOE, all phosphorothioate, methylation of C not given here)	–	–	–	–	–	–	–	–	–	decrease in PEPCK-c mRNA (PEPCK-c): 60%
186515 (antisense eA*eG*eG*eT*eA*dG*d[5mC]*dT*dT*dT*dG*dA*dT*dT*dA*eT*eG*eT*eA*eA) [compound 186515]	–	–	–	67 % UTC	39 % UTC	70 % UTC	40 % UTC	193 % UTC	105 % UTC	–
328765 (antisense eG*eA*e[5mC]*eA*eA*dA*d[5mC]*dT*d[5mC]*dA*dG*d[5mC]*dT*dA*dT*eA*eT*eT*eG*eT) [compound 328765]	–	–	–	87 % UTC	97 % UTC	93 % UTC	73 % UTC	88 % UTC	94 % UTC	–
340362 (antisense GACTGTTGAATCTCATGGCA; 5-10-5 gapmer, wing sugar and linkages not given here, further chemistry not given here) [compound 340362]	–	–	–	123 % UTC	119 % UTC	168 % UTC	104 % UTC	157 % UTC	129 % UTC	–
328367 (eA*e[5mC]*eT*eG*eA*dG*dG*dG*d[5mC]*dG*dG*d[5mC]*d[5mC]*d[5mC]*dG*eG*eG*e[5mC]*eA*eG) [compound 328367]	107	85	141	–	–	–	–	–	–	–
328779 (antisense eT*eG*eT*eT*eT*dG*dT*d[5mC]*dT*d[5mC]*d[5mC]*dA*dA*dG*dA*eA*eA*e[5mC]*eG*eT) [compound 328779]	–	–	–	109 % UTC	119 % UTC	123 % UTC	78 % UTC	135 % UTC	128 % UTC	–
328774 (antisense eG*e[5mC]*eA*e[5mC]*e[5mC]*d[5mC]*dG*d[5mC]*d[5mC]*dT*d[5mC]*dA*d[5mC]*dA*d[5mC]*eA*e[5mC]*eG*eT*eG) [compound 328774]	68	77	100	–	–	–	–	–	–	–
341813 (antisense AGACACGTGCACTGTAGA; all 2'-MOE, all phosphorothioate, methylation of C not given here) [compound 341813]	–	–	–	100 % UTC	102 % UTC	121 % UTC	88 % UTC	137 % UTC	117 % UTC	–
328761 (antisense eG*e[5mC]*eA*eG*eG*d[5mC]*dT*dA*dA*dA*dA*dG*dA*dA*dA*eT*eA*eA*eG*e[5mC]) [compound 328761]	53	64	193	91 % UTC	98 % UTC	48 % UTC	55 % UTC	118 % UTC	93 % UTC	–
